System: smooth muscle cells
Experiment: Inhibition of the proliferation of smooth muscle cells (3H-thymidine incorporation)
Assay type: cell-based, pigs
Settings: Sus scrofa; smooth muscle cells from pig aortas; half-maximum inhibition of 3H-thymidine incorporation produced by 10% FCS
Description: Investigation of the inhibition of the proliferation of smooth muscle cells by the compounds according to the invention
To determine the antiproliferative action of the compounds, smooth muscle cells are used which have been obtained from the aortas of pigs by the media explant technique [R. Ross, J. Cell. Biol. 50, 172, 1971]. The cells are inoculated into suitable culture dishes, as a role 96-hole plates, and cultured at 37° C. for 2-3 days in medium 199 with 7.5% FCS and 7.5% NCS, 2 mM L-glutamine and 15 mM HEPES, pH 7.4 in 5% CO2. The cells are then synchronized by withdrawal of serum for 2-3 days and then stimulated to growth using serum or other factors. At the same time, test compounds are added. […] To determine the IC50 values, the active compound concentration is calculated at which sequential dilution of the active compound causes half-maximum inhibition of the thymidine incorporation produced by 10% FCS.

In the case of `NC(=O)C(NC(=O)[C@@H]1CCCC[C@H]1c1ccc(Cc2c(-c3ccccc3)[nH]c3ccccc23)cc1)c1ccccc1` (stereo partly drawn) [Example 3, trans-2-[4-(2-Phenylindol-3-yl-methyl)phenyl]-cyclohexane-1-carbonyl(phenylglycinamido)amide], the IC50 is reported as 0.02 nM.

Source: patent publication US5607962A, “Substituted indole derivatives” (Bayer Aktiengesellschaft, priority 1995, dated 1997)
